# Measured values taken from ChEMBL document CHEMBL6134840 (J Med Chem, 2025).
# Assays:
# [1] = Permeability across apical to basal side in human Caco-2 cells; assay type: ADME, cell-based
# [2] = Stability in mouse liver microsome; assay type: ADME; conditions: microsomes
smiles,measurement,setting,value
O=S(=O)(Nc1ccc2ccccc2n1)c1ccccc1,permeability,[1],Permeable
same,Stability,[2],Stable
